pIC50: −log10 of the molar value.
How the values were obtained:
[1] = biological target: T1, Arginase-2, mitochondrial (Homo sapiens, UniProt P78540); experiment: Inhibition of human arginase-2 assessed as L-arginine conversion to L-ornithine measured as urea level after 1 hr by colorimetric assay
T1 sequence (P78540 whole entry): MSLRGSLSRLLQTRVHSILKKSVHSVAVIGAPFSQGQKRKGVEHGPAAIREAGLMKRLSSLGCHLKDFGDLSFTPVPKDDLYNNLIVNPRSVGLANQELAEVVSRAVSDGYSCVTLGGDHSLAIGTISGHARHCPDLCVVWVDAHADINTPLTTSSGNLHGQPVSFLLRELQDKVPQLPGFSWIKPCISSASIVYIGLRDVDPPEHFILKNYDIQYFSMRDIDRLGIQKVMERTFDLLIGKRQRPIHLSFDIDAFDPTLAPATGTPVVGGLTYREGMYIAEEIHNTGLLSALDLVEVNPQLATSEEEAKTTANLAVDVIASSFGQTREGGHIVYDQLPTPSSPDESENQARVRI

Arginase-1 = biological target: T2, Arginase-1 (Homo sapiens, UniProt P05089); experiment: Inhibition of human arginase-1 assessed as L-arginine conversion to L-ornithine measured as urea level after 1 hr by colorimetric assay
T2 sequence (P05089 whole entry): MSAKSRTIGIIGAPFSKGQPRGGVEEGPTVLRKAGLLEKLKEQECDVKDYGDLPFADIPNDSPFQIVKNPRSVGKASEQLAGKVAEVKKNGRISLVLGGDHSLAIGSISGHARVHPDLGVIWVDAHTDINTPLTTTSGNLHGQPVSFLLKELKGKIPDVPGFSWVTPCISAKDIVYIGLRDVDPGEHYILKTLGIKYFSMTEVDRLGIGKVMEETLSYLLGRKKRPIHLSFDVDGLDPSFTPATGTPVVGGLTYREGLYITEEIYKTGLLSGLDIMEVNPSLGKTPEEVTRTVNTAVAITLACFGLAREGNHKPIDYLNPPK

[2] = Octanol-phosphate buffer partition coefficient, log D of the compound by shake-flask method; format: physicochemical
[3] = Bioavailability in ip dosed rat; format: ADME, organism-based; details: in vivo
[4] = Half life in iv dosed rat; format: ADME, organism-based; details: in vivo
[5] = Volume of distribution at steady state in iv dosed rat; format: ADME, organism-based; details: in vivo, read-out: Vdss
Rattus norvegicus [6] = experiment: AUC (0 to t) in iv dosed rat; format: ADME, organism-based, Plasma; details: in vivo
Rattus norvegicus [7] = experiment: AUC (0 to infinity) in iv dosed rat; format: ADME, organism-based, Plasma; parameters: route intravenous, time infinity; details: in vivo
[8] = Clearance in iv dosed rat; format: ADME, organism-based; details: in vivo
Plasma = experiment: Initial plasma concentration in rat; format: ADME
[9] = Mean residence time in rat; format: ADME, organism-based; details: in vivo
[10] = Oral bioavailability in rat; format: ADME, organism-based; details: in vivo

| Compound | pIC50 [1] | pIC50 (Arginase-1) | logD [2] | bioavailability [3] [%] | half-life [4] [h] | Vd [5] [L/kg] | AUCt (Rattus norvegicus [6]) [kg·h/L] | AUC (Rattus norvegicus [7]) [kg·h/L] | clearance [8] [mL/min/kg] | C0 (Plasma) [ng/mL] | MRT [9] [h] | bioavailability [10] [%] |
| --- | --- | --- | --- | --- | --- | --- | --- | --- | --- | --- | --- | --- |
| N[C@@H](CCCCB(O)O)C(=O)O | 5.67 | 5.83 | – | – | – | – | – | – | – | – | – | – |
| NC(CCCCB(O)O)(C(=O)O)C1CCN(C(=O)Nc2ccc(Cl)cc2)CC1 (racemic) | 5.96 | 6.14 | 0.5 | < 5 | – | – | – | – | – | – | – | – |
| NC(CCCCB(O)O)(C(=O)O)C1CCN(C(=S)NCc2ccc(Cl)cc2)CC1 (racemic) | 5.95 | 6.48 | – | < 5 | – | – | – | – | – | – | – | – |
| NC(CCCCB(O)O)(C(=O)O)C1CC2CCC(C1)N2 (racemic) | 7.07 | 7.10 | – | < 5 | – | – | – | – | – | – | – | – |
| NC(CCCCB(O)O)(C(=O)O)C1CC2CCC(C1)N2Cc1ccccc1 (racemic) | 7.33 | 7.62 | – | < 5 | – | – | – | – | – | – | – | – |
| NC(CCCCB(O)O)(C(=O)O)C1CC2CCC(C1)N2Cc1ccc(Cl)cc1 (racemic) | 7.52 | 7.77 | – | < 5 | – | – | – | – | – | – | – | – |
| NC(CCCCB(O)O)(C(=O)O)C1CC2CCC(C1)N2Cc1ccc(Cl)c(Cl)c1 (racemic) | 7.64 | 7.68 | 2.4 | > 50 | 3.12 | 0.918 | 0.951 | 0.994 | 16.8 | 4770 | 0.912 | 0.25 |
| NC(CCCCB(O)O)(C(=O)O)C1CC2CCC(C1)N2Cc1ccc(F)c(F)c1 (racemic) | 7.48 | 7.66 | – | < 5 | – | – | – | – | – | – | – | – |
| NC(CCCCB(O)O)(C(=O)O)C1CCNCC1 (racemic) | 6.19 | 6.42 | -2.8 | < 5 | – | – | – | – | – | – | – | – |
| Cc1ccc(S(=O)(=O)N2CCC(C(N)(CCCCB(O)O)C(=O)O)CC2)cc1 (racemic) | 5.33 | 5.18 | – | < 5 | – | – | – | – | – | – | – | – |

Second part, led by results:

| pIC50 [1] | pIC50 (Arginase-1) | logD [2] | bioavailability [3] [%] | Compound | half-life [4] [h] | Vd [5] [L/kg] | AUCt (Rattus norvegicus [6]) [kg·h/L] | AUC (Rattus norvegicus [7]) [kg·h/L] | clearance [8] [mL/min/kg] | C0 (Plasma) [ng/mL] | MRT [9] [h] | bioavailability [10] [%] |
| --- | --- | --- | --- | --- | --- | --- | --- | --- | --- | --- | --- | --- |
| 6.64 | 6.74 | -1.1 | < 5 | CC(C)CCN1CCC(C(N)(CCCCB(O)O)C(=O)O)CC1 (racemic) | – | – | – | – | – | – | – | – |
| 6.64 | 6.70 | -0.4 | < 5 | NC(CCCCB(O)O)(C(=O)O)C1CCN(Cc2ccccc2)CC1 (racemic) | – | – | – | – | – | – | – | – |
| 6.62 | 6.72 | 0.3 | < 5 | NC(CCCCB(O)O)(C(=O)O)C1CCN(Cc2ccc(Cl)cc2)CC1 (racemic) | – | – | – | – | – | – | – | – |
| 6.54 | 6.70 | 1.5 | > 50 | NC(CCCCB(O)O)(C(=O)O)C1CCN(Cc2ccc(Cl)c(Cl)c2)CC1 (racemic) | 7.83 | 1.51 | 2.05 | 2.12 | 7.87 | 4720 | 2.14 | 4.8 |
| 6.48 | 6.68 | – | < 5 | NC(CCCCB(O)O)(C(=O)O)C1CCN(CCc2ccc(Cl)cc2Cl)CC1 (racemic) | – | – | – | – | – | – | – | – |
| 7.30 | 7.00 | 1.2 | < 5 | NC(CCCCB(O)O)(C(=O)O)C1CCN(CCCc2ccc(Cl)cc2Cl)CC1 (racemic) | – | – | – | – | – | – | – | – |
| 7.15 | 6.92 | – | < 5 | NC(CCCCB(O)O)(C(=O)O)C1CCN(CCCc2ccc(C(F)(F)F)cc2)CC1 (racemic) | – | – | – | – | – | – | – | – |

Source: ChEMBL document CHEMBL2417426, “Synthesis of quaternary α-amino acid-based arginase inhibitors via the Ugi reaction” (Bioorg Med Chem Lett, 2013)
